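Step 1: Grow cells in 96-well plates. Step 2: Expose to compound for 48 hours at 5 concentrations. Step 3: Interpolate endpoints linearly; if unreached, use highest concentration. GI50 = concentration required for 50% inhibition of growth.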 Activity calls are given as the source filed them. No stated cut-off is given here; in the data, active = GI50 up to about 1.1 µM and inactive = higher.
What was measured:
Assay in all cases: NCI tumour cell line growth inhibition, 48 h
SNB-19 = tested on: SNB-19
SNB-75 = tested on: SNB-75
HT-29 = tested on: HT-29
IGROV-1 = tested on: IGROV-1
BT-549 = tested on: BT-549
MCF7 = tested on: MCF7
OVCAR-4 = tested on: OVCAR-4
MDA-MB-435 = tested on: MDA-MB-435
SK-MEL-2 = tested on: SK-MEL-2
HCC 2998 = tested on: HCC 2998
OVCAR-5 = tested on: OVCAR-5
ACHN = tested on: ACHN
T47D = tested on: T47D
TK-10 = tested on: TK-10
OVCAR-3 = tested on: OVCAR-3
SN12C = tested on: SN12C
SK-MEL-28 = tested on: SK-MEL-28
SR = tested on: SR
MDA-N = tested on: MDA-N
HCT-15 = tested on: HCT-15

SMILES | GI50 (SNB-19) | GI50 (SNB-75) | GI50 (HT-29) | GI50 (IGROV-1) | GI50 (BT-549) | GI50 (MCF7) | GI50 (OVCAR-4) | GI50 (MDA-MB-435) | GI50 (SK-MEL-2) | GI50 (HCC 2998) | GI50 (OVCAR-5) | GI50 (ACHN) | GI50 (T47D) | GI50 (TK-10) | GI50 (OVCAR-3) | GI50 (SN12C) | GI50 (SK-MEL-28) | GI50 (SR) | GI50 (MDA-N) | GI50 (HCT-15) [µM]
c1ccc2oc(-c3ccc(-c4nc5ccccc5o4)c4c3CC4)nc2c1 | > 100 µM (inactive) | > 100 µM (inactive) | > 100 µM (inactive) | > 100 µM (inactive) | > 100 µM (inactive) | > 100 µM (inactive) | > 100 µM (inactive) | > 100 µM (inactive) | > 100 µM (inactive) | > 100 µM (inactive) | > 100 µM (inactive) | > 100 µM (inactive) | > 100 µM (inactive) | > 100 µM (inactive) | > 100 µM (inactive) | > 100 µM (inactive) | > 100 µM (inactive) | > 100 µM (inactive) | > 100 µM (inactive) | > 100
C#CC(O)/C=C/CCCCCCC#CC/C=C\CC#CCCCCCC/C=C/C(O)C#C (stereo not given) | 12.4 µM (inactive) | 7.19 µM (inactive) | 2.06 µM (inactive) | 0.561 µM (active) | 2.86 µM (inactive) | 10.8 µM (inactive) | 2.57 µM (inactive) | 2.34 µM (inactive) | 2.99 µM (inactive) | 1.8 µM (inactive) | 2.48 µM (inactive) | 3.9 µM (inactive) | 1.4 µM (inactive) | 2.99 µM (inactive) | 2.7 µM (inactive) | 1.66 µM (inactive) | 1.77 µM (inactive) | 2.54 µM (inactive) | 2.24 µM (inactive) | 2.55
CSC1(Cc2ccccn2)C(=O)Nc2cccc([N+](=O)[O-])c21 (stereo not given) | > 100 µM (inactive) | > 100 µM (inactive) | > 100 µM (inactive) | > 100 µM (inactive) | > 100 µM (inactive) | 76 µM (inactive) | > 100 µM (inactive) | > 100 µM (inactive) | > 100 µM (inactive) | > 100 µM (inactive) | > 100 µM (inactive) | > 100 µM (inactive) | 52.1 µM (inactive) | > 100 µM (inactive) | > 100 µM (inactive) | > 100 µM (inactive) | 55.5 µM (inactive) | > 100 µM (inactive) | > 100 µM (inactive) | > 100

— ChEMBL document CHEMBL1201862, “PubChem BioAssay data set” (2004)
